Like-named read-outs stand apart in the source and are kept apart here.
Assays:
E. coli = assay: MIC alone and checkerboard with EDTA or polymyxin B; type: cell-based; settings: for MIC: Escherichia coli, read-out: MIC, agent alone
Description: (§1) MICs for NCL812 and its analogs (serial two-fold dilutions commencing at 128 μg/ml) were determined (in duplicate) in round bottom 96-well microtitre trays (Sarstedt 82.1582.001), using the broth micro-dilution method recommended by the Clinical and Laboratory Standards Institute (CLSI). […] MIC50, MIC90 and MIC range for NCL812, NCL195 and NCL219 were calculated against each S. pneumoniae, S. aureus or VRE isolate. To assess the potential activity of NCL195 against Gram-negative bacteria, MICs against Acinetobacter spp, E. coli, K. pneumoniae, P. aeruginosa, Proteus spp and Neisseria meningitidis were performed in the presence or absence of 0.08 mM-20 mM EDTA in a standard checkerboard assay.

K. pneumoniae = assay: as above; type: cell-based; settings: for MIC of NCL195 in combination with EDTA: with EDTA 10 mM; for MIC: Klebsiella pneumoniae, read-out: MIC, agent alone
Description: as §1

P. aeruginosa = assay: as above; type: cell-based; settings: for MIC: Pseudomonas aeruginosa, read-out: MIC, agent alone
Description: as §1

A. anitratus = assay: MIC, broth micro-dilution; type: cell-based; settings: Acinetobacter calcoaceticus; one A. anitratus isolate; absence of EDTA
Description: as §1

A. calcoaceticus = assay: MIC, broth micro-dilution; type: cell-based; settings: 8 A. calcoaceticus isolates; absence of EDTA
Description: as §1

[1] = test system: A. baumannii, E. coli, K. pneumoniae and P. aeruginosa; assay: MIC with sub-inhibitory EDTA or polymyxin B, Gram-negative panel; type: cell-based
Description: as §1

[2] = Pharmacokinetics after IP administration; type: in vivo, mouse; settings: mice, IP 43 mg/kg
Description: Mice had access to food and water ad libitum throughout the pre- and post-dose sampling period. The Animal Ethics Committee of the Monash Institute of Pharmaceutical Sciences reviewed and approved all animal PK experiments (approval number MIPS.2013.33). The PK studies were conducted in compliance with the Australian Code of Practice for the Care and Use of Animals for Scientific Purposes (7th Edition 2004). […] For both the IV and IP administration, a maximum of two samples were obtained from each mouse, with samples being taken either via submandibular bleed (approximately 120 μl; conscious sampling) or terminal cardiac puncture (0.6 ml; under inhaled Isoflurane anesthesia). No urine samples were collected as mice were housed in bedded cages during the study. […] Mice were humanely sacrificed by cervical dislocation while under anaesthesia (using gaseous isoflurane) at the end of experiments. Blood was collected directly into polypropylene Eppendorf tubes containing heparin as anti-coagulant, and stabilization cocktail (containing Complete (a protease inhibitor cocktail with EDTA) and potassium fluoride) to minimize the potential for ex vivo degradation of the test compounds in blood/plasma samples. Once collected, blood samples were centrifuged immediately, supernatant plasma was removed, and stored at either -80°C (for the IV exposure) or at -20°C (for the IP exposure) until analysis by liquid chromatography-mass spectrometry (LC-MS). Following protein precipitation with acetonitrile, thawed plasma samples were analyzed by LC-MS (Waters Micromass Quattro Premier coupled to a Waters Acquity UPLC) using positive electrospray ionization operating in MRM mode.

mice = settings: cited from earlier work

Cc1ccc(/C=N/Nc2cc(N/N=C/c3ccc(C)cc3)nc(N)n2)cc1 [NCL195, 4,6-bis(2-((E)-4-methylbenzylidene)hydrazinyl)pyrimidin-2-amine]
MIC of NCL195 in combination with EDTA (E. coli; E. coli ATCC 11229, with EDTA 0.625 mM): 8 µg/mL
MIC of NCL195 in combination with polymyxin B (E. coli; E. coli ATCC 11229): 0.25 µg/mL
MIC of NCL195 in combination with EDTA (E. coli; E. coli ATCC 25922, with EDTA 2.5 mM): 4 µg/mL
MIC of NCL195 in combination with polymyxin B (E. coli; E. coli ATCC 25922): 0.25 µg/mL
MIC (E. coli; ATCC11229, E. coli ATCC 11229): > 128 µg/mL
MIC (E. coli; ATCC25922, E. coli ATCC 25922): > 128 µg/mL
MIC of NCL195 in combination with EDTA (K. pneumoniae; K. pneumoniae ATCC 4352): 4 µg/mL
MIC of NCL195 in combination with polymyxin B (K. pneumoniae; K. pneumoniae ATCC 4352): 0.5 µg/mL
MIC of NCL195 in combination with EDTA (K. pneumoniae; K. pneumoniae ATCC 33495): 4 µg/mL
MIC of NCL195 in combination with polymyxin B (K. pneumoniae; K. pneumoniae ATCC 33495): 0.25 µg/mL
MIC (K. pneumoniae; ATCC4352, K. pneumoniae ATCC 4352): > 128 µg/mL
MIC (K. pneumoniae; ATCC33495, K. pneumoniae ATCC 33495): > 128 µg/mL
MIC of NCL195 in combination with EDTA (P. aeruginosa; P. aeruginosa ATCC 27853, with EDTA 5 mM): 2 µg/mL
MIC of NCL195 in combination with polymyxin B (P. aeruginosa; P. aeruginosa ATCC 27853): 1 µg/mL
MIC of NCL195 in combination with EDTA (P. aeruginosa; P. aeruginosa PA01, with EDTA […]): 0.25 µg/mL
MIC of NCL195 in combination with polymyxin B (P. aeruginosa; P. aeruginosa PA01): 1 µg/mL
MIC (P. aeruginosa; ATCC27853, P. aeruginosa ATCC 27853): > 128 µg/mL
MIC (P. aeruginosa; P. aeruginosa PA01): > 128 µg/mL
MIC (A. anitratus): 4 µg/mL
MIC range (A. calcoaceticus): 4 to 32 µg/mL
MIC ([1]; in the presence of sub-inhibitory concentrations of EDTA): 0.25 to 8 µg/mL
MIC ([1]; in the presence of sub-inhibitory concentrations of polymyxin B): 0.25 to 1 µg/mL
Adverse reactions after IP administration [2]: No adverse reactions or compound-related side effects were observed
Plasma concentration ([2]; between 7.5 and 24 h post-dose): 200 to 500 ng/mL
Plasma concentration ([2]; initial 7.5 h post-dose): 3000 to 4000 ng/mL

Cl.N=C(NN=Cc1ccc(Cl)cc1)NN=Cc1ccc(Cl)cc1 [NCL812, 2,2'-bis[(4-chlorophenyl)methylene] carbonimidic dihydrazide hydrochloride]
oral LD50 (mice): 150 mg/kg
